# In PMC12456999, “Sulfonyl Homoserine Lactones Are Tunable Probes to Inhibit the Quorum Sensing Receptor RhlR and Reduce Swarming Motility in Pseudomonas aeruginosa” (ACS Infectious Diseases, 2025):
# Like-named read-outs stand apart in the source and are kept apart here.
# What was measured:
# RhlR = target: T1, RhlR (Pseudomonas aeruginosa, UniProt P54292); assay: E. coli (JLD271) RhlR reporter antagonism assay, in competition with BHL; type: cell-based; conditions: for max. RhlR inhibition (%): BHL at 10 μM set to 0%, media control set to 100%
# T1 construct: expressed in transfected cells; host or cells: E. coli JLD271 (K-12 ΔlacX74 sdiA271::Cam) carrying pJN105-R2 (RhlR expression) and pSC11-rhlI (rhlI'-lacZ reporter)
# Method: To start, the sulfonyl HLs were evaluated for their ability to antagonize RhlR using a previously described E. coli strain (JLD271) harboring a RhlR expression plasmid and a rhlI reporter plasmid. This E. coli reporter produces RhlR, and protein activity in the presence of an added small molecule can be measured via the production of β-galactosidase as quantified via luminescence (see Methods). Compounds were screened in competition against RhlR’s native ligand, BHL (at its EC50 value in this strain, 10 μM), over a range of concentrations to generate antagonism dose–response curves (see Supporting Information) and calculate IC50 values (listed in Table ). A small set of compounds was also screened for RhlR agonism in the E. coli reporter; the agonism assay format was identical to the antagonism assay, except no BHL was added.
# RhlR activity in E. coli strain JLD271 (ΔsdiA) was measured via a β-galactosidase reporter (rhI-lacZ) using the Promega Beta-Glo Assay System as previously described. RhlR activity in P. aeruginosa PA14 (ΔrhlIΔlasI) was measured via a GFP reporter (rhlA-gfp). […] See Supporting Information for both reporter protocols.
# Supporting Information — Aguirre-Figueroa et al.
# E. coli and P. aeruginosa RhlR reporter assay protocols.
# E. coli RhlR reporter assay. RhlR activity in E. coli strain JLD271 (ΔsdiA) was measured via a β-galactosidase reporter using the Promega Beta-Glo® Assay System as previously described.10 A schematic of the reporter plasmids and assay protocol is shown in Scheme S1. Briefly, a single colony of E. coli JLD271 harboring the RhlR expression plasmid pJN105-R and the rhlI-lacZ transcriptional fusion reporter pSC11-R (Table S1) was grown in LB medium with 100 μg/mL ampicillin and 10 μg/mL gentamicin overnight (~16 h). The culture was diluted 1:10 in fresh LB medium and grown to an OD600 = 0.25 (0.23–0.28) (~0.5 h). Arabinose was added to a final concentration of 4 mg/mL to induce the expression of pJN105-R. Aliquots (2 μL) of compound DMSO stock solution or serial dilution were added to the inner wells (i.e., non-periphery rows) of a 96-well microtiter plate. To six inner wells, DMSO alone (vehicle) was added as a negative control. For agonism assays, BHL was added to six inner wells as a positive control (to achieve 1 mM). For antagonism assays, BHL was added to six inner wells as a positive control and to all of the other sample wells except for the vehicle control wells (to achieve 10 μM ). Subculture (198 μL) was then dispensed into each inner well. To the outer (periphery) wells, 200 μL of water were added to maintain humidity during incubation. Plates were then incubated for 4 h (shaking) at 37 °C.
# Scheme S1. Schematic of E. coli reporter plasmids and assay. (A) Representation of plasmids used in the heterologous reporter system. (B) General reporter assay workflow. BioRender used in […]
# After the incubation period, the OD600 of each well was measured using a plate reader. Cell dilution plates were prepared by transferring 10 μL from the incubated culture plate wells to a fresh 96-well plate and adding 90 μL of 18 MΩ water to each well. Next, 10 μL aliquots of diluted Beta-Glo® reagent (1:2 with 18 MΩ water) were added to each well of a white 384-well microtiter plate, followed by 10 μL of culture from each well of the dilution plate. The 384-well plate was incubated (without shaking; i.e., static) for 30 min at 30 °C. After incubation, luminescence of each well was measured using a plate reader. To determine levels of RhlR activity, raw luminescence was divided by OD600 to correct for growth variation and then normalized to the negative (0%) and positive (100%) control wells.
# Dose-response reporter assay data for compounds in the E. coli RhlR reporter.
# Dose-response curves for RhlR antagonism by compounds against 10 μM BHL using the E. coli JLD271 RhlR reporter are provided below. Compound names are indicated on the x-axis of each plot.
# All assays performed in triplicate as at least three separate biological replicates. […]
# P. aeruginosa PAO1 = assay: Swarming motility assay; type: cell-based, Pseudomonas aeruginosa; conditions: PAO1 + DMSO = 100%, PAO1 ΔrhlR + vehicle = 0%; for reduction in swarming activity relative to the controls: compound at 500 μM
# Excerpt: We next evaluated the ability of the four sulfonyl HLs 39, 43, 59, and 75 capable of inhibiting RhlR in the P. aeruginosa reporter to reduce swarming motility in a wild-type P. aeruginosa strain (PAO1). Swarming is a rapid, group-coordinated movement of a bacterial population across a semisolid surface, linked to increased expression of virulence factors and increased antibiotic resistance and regulated in P. aeruginosa, at least in part, by the Rhl system. The results of these phenotypic assays are shown in Figure (see Methods for protocol). The swarming ability of PAO1 in the presence of vehicle (DMSO) served as a positive control (set to 100%). As a key negative control, we examined the swarming ability of a PAO1 ΔrhlR mutant in the presence of the vehicle and observed […] relative to the positive control (set to 0%).
# 5 Swarming motility assay data in P. aeruginosa. […] Area of the colony after 42 h incubation was used to calculate swarming activity (see Methods). Positive control = PAO1 treated with vehicle (DMSO, 100%). Negative control = PAO1 ΔrhlR treated with vehicle (0%). Error bars = standard deviation of the means of triplicate samples. (B) Representative images of P. aeruginosa swarming on agar plates used to generate data in panel A.
# The motility assay was based in part on a previously reported procedure. P. aeruginosa PAO1 was grown overnight with 500 or 250 μM compound, or vehicle (DMSO), at 37 °C and normalized to OD600 = 0.4. Cells were washed with sterile water twice and resuspended with 500 (39, 43, and 59) or 250 (75) μM fresh compound or vehicle (DMSO), in M8 minimal medium. Cells (5 μL) were spotted in the center of agar plates (100 mm diameter) generated from M8 minimal medium + 1 mM MgSO4 + 0.2% glucose + 0.5% Casamino acids + 0.5% agar. Plates were covered and the cells were grown for 24–48 h at 37 °C prior to imaging (using an iPhone 14 camera). Photographs were analyzed using ImageJ to calculate the area of the swarm and normalized to the area of (P. aeruginosa PAO1 + vehicle) – (P. aeruginosa PDO111 (ΔrhlR) + vehicle).
# bacterial growth = assay: Effect on bacterial growth (OD600 over time); type: cell-based; conditions: at >2 mM concentrations
# Method: All new compounds were fully characterized for purity and identity (see Supporting Information). […] The remaining compounds had no effect on growth over the concentration range tested. All compounds were tested in bacteriological assays in triplicate and in at least three separate trials using unique cultures. IC50 and EC50 values in reporter assays were calculated using GraphPad Prism software (version 9.0) with a variable slope sigmoidal curve fit.
# [1] = IC50, E. coli JLD271 RhlR reporter, against 10 μM BHL
# T1 sequence (P54292 whole entry): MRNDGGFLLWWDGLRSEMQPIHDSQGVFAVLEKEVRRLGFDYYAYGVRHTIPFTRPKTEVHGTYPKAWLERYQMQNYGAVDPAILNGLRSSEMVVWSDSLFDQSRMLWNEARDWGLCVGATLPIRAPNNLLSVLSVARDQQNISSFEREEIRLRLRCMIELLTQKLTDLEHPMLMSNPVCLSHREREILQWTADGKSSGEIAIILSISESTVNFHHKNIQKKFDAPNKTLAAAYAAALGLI
smiles,measurement,setting,value
"CCCCCS(=O)(=O)N[C@H]1CCOC1=O [Compound 75, C5 ASHL]",IC50,"RhlR; E. coli JLD271 RhlR reporter, against 10 μM BHL",20.6 µM
same,max. RhlR inhibition (%),RhlR; E. coli RhlR reporter,84%
same,IC50,"RhlR; read-out: inhibitory potency on average (74, 75 and 18), average over the C4, C5 and C6 ASHLs, E. coli RhlR reporter",~28 µM
same,reduction in swarming,P. aeruginosa PAO1; compound at 250 μM,30%
"O=C1OCC[C@@H]1NS(=O)(=O)c1ccc(F)c(F)c1 [Compound 59, 3,4-di-F BSHL]",max. RhlR inhibition (%),RhlR; E. coli RhlR reporter,87%
same,IC50,RhlR; [1],87.8 µM
same,reduction in swarming activity relative to the controls,P. aeruginosa PAO1,60%
"O=C1OCC[C@@H]1NS(=O)(=O)c1cccc(Br)c1 [Compound 39, 3-bromo BSHL]",fold more potent than 4-bromo BSHL (35),RhlR; E. coli RhlR reporter IC50,~6 fold
same,max. RhlR inhibition (%),RhlR; E. coli RhlR reporter,90%
same,IC50,RhlR; [1],29.9 µM
same,reduction in swarming activity relative to the controls,P. aeruginosa PAO1,60%
same,effect on bacterial growth,bacterial growth,modest effect on bacterial growth
"O=C1OCC[C@@H]1NS(=O)(=O)c1ccc(Cl)c(Cl)c1 [Compound 43, 3,4-di-Cl BSHL]",potency gain,"RhlR; 33 vs 16, 43 vs 24, 86 vs 45, E. coli RhlR reporter IC50",≤ 40 fold
same,fold lower IC50 value than 3-Cl BSHL (28),RhlR; E. coli RhlR reporter IC50,over 2 fold
same,max. RhlR inhibition (%),RhlR; E. coli RhlR reporter,99%
same,IC50,RhlR; [1],54.3 µM
same,reduction in swarming activity relative to the controls,P. aeruginosa PAO1,60%
same,effect on bacterial growth,bacterial growth,modest effect on bacterial growth
